Values of other authors, collected in patent US20100056426A1, “USE OF IRON CHELATOR FOR THE TREATMENT OF MYOCARDIAL INFARCTION” (NOVARTIS AG, priority 2007, published 2010).
Like-named read-outs stand apart in the source and are kept apart here.

What was measured:
[1] = model systems; Hershko et al., Blood 2001
[2] = humans; Nisbet Brown et al., Lancet 2003

O=C(O)c1ccc(-n2nc(-c3ccccc3O)nc2-c2ccccc2O)cc1 [4-[3,5-bis-(2-hydroxyphenyl)-[1,2,4]-triazol-1-yl]benzoic acid]
selective removal of iron [1]: effective in the selective removal of iron
selective removal of iron [2]: effective in the selective removal of iron
